Each compound was assayed on phosphorylated Akt at serine 473 (pAKTs473) in primary human lung fibroblasts (assay: High throughput phosphorylated Akt (Ser473) in vitro immunoassay (MSD)). Details: Fibroblast, primary human lung fibroblasts (Lonza), 384-well, compound 1 h, PDGF-BB 10 ng/ml 10 min, read-out: mean pIC50, pAKTser473 high throughput immunoassay (converted).
Format: cell-based
Text: Immunoassay to measure effect of test compounds on phosphorylated Akt at serine 473 (pAKTs473) in primary human lung fibroblasts (Lonza Group Ltd, Basel, Switzerland, Catalogue No. CC-2512) using the MesoScale Discovery (MSD) platform to quantify levels of total Akt and pAKTser473.
Human lung fibroblasts were routinely maintained in fibroblast basal medium supplemented with 2% foetal bovine serum (FBS), 0.1% human fibroblast growth factor (FGF)-B, 0.1% insulin, 0.1% GA-100 (Lonza Group Ltd, Basel, Switzerland, Catalogue No. CC-3132) at 37° C. in 5% CO2 according to the manufacturer's protocol.
For the assay, cells were harvested using Trypsin/EDTA, (Lonza Group Ltd, Basel, Switzerland, Catalogue No. CC-5012), at working concentration of 0.025%, resuspended to give 3×10^5 cells/ml and 50 ul/well seeded into 384-well plates (Greiner Group, Kremsmunster, Austria, Catalogue No. 781091) in media containing 0.4% FBS and incubated o/n at 37° C. in 5% CO2.
Test compounds were dissolved in 100% DMSO to give 10 mM stock solutions and serially diluted to generate an 11-point concentration response curve. Compound were further diluted by […] into 384-well V-bottom polypropylene plates (Greiner Group, Kremsmunster, Austria, Catalogue No. 781280) with media containing 0.4% FBS to give 50 µM top compound concentration in 0.5% DMSO.
Compounds were transferred to 384-well plates contacting cells (0.1% DMSO final) and incubated for 1 h at 37° C. in 5% CO2, prior to stimulation with platelet-derived growth factor (PDGF)-BB (R&D Systems, Catalogue No. 220-BB) at 10 ng/ml (final) for 10 min at RT. Cell assay plates were incubated on ice and treated with lysis buffer (Cell Signalling Technology, Catalogue No. 9806) containing protease and phosphatase inhibitors (Thermo Scientific, Catalogue No. 78444) followed by shaking for 30 min at 4° C.
MSD plates (MSD, MA6000 384-well GAR plate, Catalogue No. L21RA-2) were blocked with blocking buffer containing TBS (MSD, Cat. No. R61TX-1) with 0.5% bovine serum albumin (BSA) (Sigma Aldrich, Cat. No. A7906), 0.1% tween-20 (Sigma Aldrich, Catalogue No. P2287) and coated with rabbit-anti-human pAkt (s473) ab (Cell Signalling Technology, Catalogue No. CST #4060) at RT with shaking, followed by washing (×3) with 1×TBS wash reagent containing 0.1% Tween-20. Cell lysates (30 ul) were added and MSD plates centrifuged at 1000 rpm at 4° C. o/n.
Plates were washed with 1×TBS wash buffer (×3), prior to addition of mouse-anti-human-total Akt ab (1 mg/ml) (Upstate (Milipore), Catalogue No. 05-591) in blocking buffer and shaken at RT for 1 h. After washing with 1×TBS wash buffer (×3), plates were incubated with goat-anti-mouse SULFO-TAG detection ab (MSD, Catalogue No. R32AC-1) (1:500 in blocking buffer) for 1 h at RT. Plates were washed with 1×TBS (×3) and read buffer (2×) (MSD, Catalogue No. R92TC-1) added before detecting electrochemiluminescence (MSD Sector Imager 6000).
Data analysis was performed by determining % inhibition values for test compounds relative to the minimum (+PDGF-BB stimulation) and maximum responses (no PDGF-BB stimulation) with non-linear regression analysis to determine IC50 values for test compounds.

Compound | IC50
CC[C@H]1COCC(=O)N1c1cc(CS(C)(=O)=O)nc(-c2ccc3[nH]c(C)cc3n2)n1 [Example 14, (5S)-5-ethyl-4-[6-(methanesulfonylmethyl)-2-{2-methyl-1H-pyrrolo[3,2-b]pyridin-5-yl}pyrimidin-4-yl]morpholin-3-one] | 2.51 to 25.1 nM
CC[C@H]1COCC(=O)N1c1cc(CS(C)(=O)=O)cc(-c2ccc3[nH]c(C)cc3n2)n1 [Example 24, (S)-5-ethyl-4-(6-(2-methyl-1H-pyrrolo[3,2-b]pyridin-5-yl)-4-((methylsulfonyl)methyl)pyridin-2-yl)morpholin-3-one] | 2.51 to 25.1 nM
CC[C@H]1COCCN1c1cc(CS(=O)(=O)N(C)C)nc(-c2ccc3[nH]c(CO)cc3n2)n1 [Example 9, 1-{6-[(3S)-3-ethylmorpholin-4-yl]-2-[2-(hydroxymethyl)-1H-pyrrolo[3,2-b]pyridin-5-yl]pyrimidin-4-yl}-N,N-dimethylmethanesulfonamide] | 2.51 to 25.1 nM
CC[C@H]1COCCN1c1cc(C2(S(C)(=O)=O)CCOCC2)nc(-c2ccc3[nH]c(C)cc3n2)n1 [Example 13, (3S)-3-ethyl-4-[6-(4-methanesulfonyloxan-4-yl)-2-{2-methyl-1H-pyrrolo[3,2-b]pyridin-5-yl}pyrimidin-4-yl]morpholine] | 2.51 to 25.1 nM
CC[C@H]1COCC(=O)N1c1cc(C2(S(C)(=O)=O)CCOCC2)cc(-c2ccc3[nH]c(CO)cc3n2)n1 [Example 26] | 2.51 to 25.1 nM
CC[C@H]1COCC(=O)N1c1cc(C2(S(C)(=O)=O)CCOCC2)cc(-c2ccc3[nH]c(C)cc3n2)n1 [Example 25, (S)-5-ethyl-4-(6-(2-methyl-1H-pyrrolo[3,2-b]pyridin-5-yl)-4-(4-(methylsulfonyl)tetrahydro-2H-pyran-4-yl)pyridin-2-yl)morpholin-3-one] | 2.51 to 25.1 nM
CCc1cc2nc(-c3nc(CS(C)(=O)=O)cc(N4C(=O)COC[C@@H]4CC)n3)ccc2[nH]1 [Example 15, (5S)-5-ethyl-4-(2-{2-ethyl-1H-pyrrolo[3,2-b]pyridin-5-yl}-6-(methanesulfonylmethyl)pyrimidin-4-yl)morpholin-3-one] | 2.51 to 25.1 nM
CNCc1cc2nc(-c3cc(CS(C)(=O)=O)cc(N4CCO[C@H](C)[C@H]4C)n3)ccc2[nH]1 [Example 8, 1-(5-(6-((2R,3R)-2,3-dimethylmorpholino)-4-((methylsulfonyl)methyl)pyridin-2-yl)-1Hpyrrolo[3,2-b]pyridin-2-yl)-Nmethylmethanamine] | 2.51 to 25.1 nM
CC[C@H]1COCCN1c1cc(CS(=O)(=O)N(C)C)nc(-c2ccc3[nH]c(CNC)cc3n2)n1 [Example 16, 1-{6-[(3S)-3-ethylmorpholin-4-yl]-2-{2-[(methylamino)methyl]-1H-pyrrolo[3,2-b]pyridin-5-yl}pyrimidin-4-yl}-N,N-dimethylmethanesulfonamide] | 2.51 to 25.1 nM
CC[C@H]1COCCN1c1cc(CS(C)(=O)=O)nc(-c2ccc3[nH]c(CNC)cc3n2)n1 [Example 1, [(5-{4-[(3S)-3-ethylmorpholin-4-yl]-6-(methanesulfonylmethyl)pyrimidin-2-yl}-1H-pyrrolo[3,2-b]pyridin-2-yl)methyl](methyl)amine] | 2.51 to 25.1 nM
CC[C@H]1COCCN1c1cc(CS(N)(=O)=O)cc(-c2ccc3[nH]c(C)cc3n2)n1 [Example 23, (S)-(2-(3-ethylmorpholino)-6-(2-methyl-1H-pyrrolo[3,2-b]pyridin-5-yl)pyridin-4-yl)methanesulfonamide] | 2.51 to 25.1 nM
CC[C@H]1COCCN1c1cc(CS(=O)(=O)NC)nc(-c2ccc3[nH]c(CO)cc3n2)n1 [Example 10, 1-{6-[(3S)-3-ethylmorpholin-4-yl]-2-[2-(hydroxymethyl)-1H-pyrrolo[3,2-b]pyridin-5-yl]pyrimidin-4-yl}-N-methylmethanesulfonamide] | 2.51 to 25.1 nM

Reference: US20220306623A1, “PYRIDYL OR PYRIMIDYL MTOR KINASE INHIBITORS” (GLAXOSMITHKLINE INTELLECTUAL PROPERTY DEVELOPMENT LIMITED, priority 2019, published 2022)
